In ChEMBL document CHEMBL4043213, “β-Arrestin biased dopamine D2 receptor partial agonists: Synthesis and pharmacological evaluation” (Bioorg Med Chem, 2017) one finds Ki data, which are given here for 1 compound.

Bounds are passed on as bounds.

The target in experiment [1] is T1, D(2) dopamine receptor (Homo sapiens, UniProt P14416). The experiment can be described thus: biochemical. Format: cell-based.
Description: Displacement of [3H]spiperone from human D2SR expressed in CHO cell membranes
A further experiment deals with D(1A) dopamine receptor (Homo sapiens, UniProt P21728). The experiment can be described thus: biochemical.
Sequence of D(1A) dopamine receptor (P21728 whole entry): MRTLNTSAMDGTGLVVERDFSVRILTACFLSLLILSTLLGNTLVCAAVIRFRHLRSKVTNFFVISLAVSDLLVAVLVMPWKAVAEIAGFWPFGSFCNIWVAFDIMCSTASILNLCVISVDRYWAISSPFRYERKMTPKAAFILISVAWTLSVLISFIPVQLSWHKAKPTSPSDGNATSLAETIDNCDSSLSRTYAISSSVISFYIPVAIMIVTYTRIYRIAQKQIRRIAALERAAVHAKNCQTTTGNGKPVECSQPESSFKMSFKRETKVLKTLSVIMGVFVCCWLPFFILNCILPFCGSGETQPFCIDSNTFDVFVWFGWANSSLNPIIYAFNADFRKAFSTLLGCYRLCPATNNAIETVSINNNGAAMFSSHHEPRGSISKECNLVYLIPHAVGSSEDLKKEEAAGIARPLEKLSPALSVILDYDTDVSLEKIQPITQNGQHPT
Experiment [2] addresses T2, 5-hydroxytryptamine receptor 1A (Homo sapiens, UniProt P08908).
T2 sequence (P08908 whole entry): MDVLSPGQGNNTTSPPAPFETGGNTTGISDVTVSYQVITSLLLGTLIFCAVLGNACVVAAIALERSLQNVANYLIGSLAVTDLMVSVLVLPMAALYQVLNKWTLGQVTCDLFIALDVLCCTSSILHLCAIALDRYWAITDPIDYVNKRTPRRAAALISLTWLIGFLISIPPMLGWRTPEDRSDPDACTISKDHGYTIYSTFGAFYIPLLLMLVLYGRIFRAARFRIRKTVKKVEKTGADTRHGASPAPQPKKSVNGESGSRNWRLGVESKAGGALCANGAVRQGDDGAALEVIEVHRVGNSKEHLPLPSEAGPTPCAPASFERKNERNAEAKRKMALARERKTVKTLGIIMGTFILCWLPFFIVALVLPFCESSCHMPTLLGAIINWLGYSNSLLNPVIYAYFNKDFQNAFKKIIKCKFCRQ
The experiment can be described thus: Displacement of [3H]WAY100635 from human 5-HT1AR. For orientation: In a radioligand displacement assay an active substance lowers the binding of a labelled ligand.

In the next experiment the target is D(1B) dopamine receptor (Homo sapiens, UniProt P21918). The experiment can be described thus: biochemical.
Sequence of D(1B) dopamine receptor (P21918 whole entry): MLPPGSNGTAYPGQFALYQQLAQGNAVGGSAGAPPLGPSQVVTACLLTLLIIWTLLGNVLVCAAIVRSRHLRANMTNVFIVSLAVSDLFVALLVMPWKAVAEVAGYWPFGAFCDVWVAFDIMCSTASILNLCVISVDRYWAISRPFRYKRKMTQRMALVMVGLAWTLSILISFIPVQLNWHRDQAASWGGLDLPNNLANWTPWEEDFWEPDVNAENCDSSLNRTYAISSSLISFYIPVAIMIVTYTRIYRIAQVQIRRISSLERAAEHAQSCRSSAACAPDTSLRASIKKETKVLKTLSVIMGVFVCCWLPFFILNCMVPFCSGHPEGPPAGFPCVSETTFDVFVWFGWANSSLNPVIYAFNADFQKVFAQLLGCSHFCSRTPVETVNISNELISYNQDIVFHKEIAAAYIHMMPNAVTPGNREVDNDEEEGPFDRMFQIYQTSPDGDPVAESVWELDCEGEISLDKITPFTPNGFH
For experiment [3], the target named is 5-hydroxytryptamine receptor 2A (Homo sapiens, UniProt P28223). Kind of experiment: biochemical.
Sequence of 5-hydroxytryptamine receptor 2A (P28223 whole entry): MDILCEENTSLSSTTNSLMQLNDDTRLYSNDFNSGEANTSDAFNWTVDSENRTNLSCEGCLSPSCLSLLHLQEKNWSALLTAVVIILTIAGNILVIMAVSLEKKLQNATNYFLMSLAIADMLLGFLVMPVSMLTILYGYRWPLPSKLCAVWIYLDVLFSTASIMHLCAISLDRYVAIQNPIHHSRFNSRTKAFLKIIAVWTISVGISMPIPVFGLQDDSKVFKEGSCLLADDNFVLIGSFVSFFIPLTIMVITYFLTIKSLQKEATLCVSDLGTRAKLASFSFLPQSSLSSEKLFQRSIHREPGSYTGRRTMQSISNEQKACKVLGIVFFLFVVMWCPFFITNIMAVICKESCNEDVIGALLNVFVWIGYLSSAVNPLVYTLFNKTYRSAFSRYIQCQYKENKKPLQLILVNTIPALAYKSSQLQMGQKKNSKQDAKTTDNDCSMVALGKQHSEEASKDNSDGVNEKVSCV
Description: Displacement of [3H]ketanserin from human 5-HT2AR expressed in HEK293T cell membranes1
The target of experiment [4] is Sigma non-opioid intracellular receptor 1 (Homo sapiens, UniProt Q99720). Kind of experiment: Displacement of [3H]prazosin from human sigma1 receptor.
Sequence of Sigma non-opioid intracellular receptor 1 (Q99720 whole entry): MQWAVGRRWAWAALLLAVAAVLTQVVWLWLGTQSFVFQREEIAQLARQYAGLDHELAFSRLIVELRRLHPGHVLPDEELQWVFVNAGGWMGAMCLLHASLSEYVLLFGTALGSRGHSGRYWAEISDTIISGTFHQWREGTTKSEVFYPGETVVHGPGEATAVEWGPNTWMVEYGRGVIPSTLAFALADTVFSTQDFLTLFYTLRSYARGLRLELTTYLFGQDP
Another experiment addresses T3, D(4) dopamine receptor (Homo sapiens, UniProt P21917).
T3 sequence (P21917 whole entry): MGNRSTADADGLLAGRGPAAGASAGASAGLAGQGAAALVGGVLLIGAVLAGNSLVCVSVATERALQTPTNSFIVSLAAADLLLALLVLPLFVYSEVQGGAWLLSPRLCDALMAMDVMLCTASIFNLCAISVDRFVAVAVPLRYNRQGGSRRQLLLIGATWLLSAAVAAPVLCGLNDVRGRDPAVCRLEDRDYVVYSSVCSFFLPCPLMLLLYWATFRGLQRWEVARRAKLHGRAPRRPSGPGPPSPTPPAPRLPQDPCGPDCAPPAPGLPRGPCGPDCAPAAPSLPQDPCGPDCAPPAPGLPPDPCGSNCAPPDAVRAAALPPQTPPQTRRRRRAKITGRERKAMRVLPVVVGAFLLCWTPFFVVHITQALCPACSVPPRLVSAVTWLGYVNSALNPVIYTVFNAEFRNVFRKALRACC
The experiment can be described thus: biochemical. The experiment is classed as cell-based.

In the next experiment the target is D(3) dopamine receptor (Homo sapiens, UniProt P35462). Kind of experiment: biochemical.
Sequence of D(3) dopamine receptor (P35462 whole entry): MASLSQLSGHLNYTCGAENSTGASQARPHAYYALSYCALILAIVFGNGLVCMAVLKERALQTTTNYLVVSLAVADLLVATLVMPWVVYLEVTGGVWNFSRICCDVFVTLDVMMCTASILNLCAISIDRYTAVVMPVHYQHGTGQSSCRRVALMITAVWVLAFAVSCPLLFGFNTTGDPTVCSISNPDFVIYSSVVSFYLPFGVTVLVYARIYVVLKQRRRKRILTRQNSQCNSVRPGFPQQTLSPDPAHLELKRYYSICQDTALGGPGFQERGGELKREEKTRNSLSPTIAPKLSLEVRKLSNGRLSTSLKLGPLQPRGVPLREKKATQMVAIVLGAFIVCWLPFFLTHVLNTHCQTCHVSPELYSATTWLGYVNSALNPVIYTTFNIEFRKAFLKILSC
The target in experiment [5] is T1, D(2) dopamine receptor. The experiment can be described thus: biochemical. Format: cell-based. The source holds these as a separate data set.
Description: Displacement of [3H]spiperone from human D2LR expressed in CHO cell membranes

T1 sequence (P14416 whole entry): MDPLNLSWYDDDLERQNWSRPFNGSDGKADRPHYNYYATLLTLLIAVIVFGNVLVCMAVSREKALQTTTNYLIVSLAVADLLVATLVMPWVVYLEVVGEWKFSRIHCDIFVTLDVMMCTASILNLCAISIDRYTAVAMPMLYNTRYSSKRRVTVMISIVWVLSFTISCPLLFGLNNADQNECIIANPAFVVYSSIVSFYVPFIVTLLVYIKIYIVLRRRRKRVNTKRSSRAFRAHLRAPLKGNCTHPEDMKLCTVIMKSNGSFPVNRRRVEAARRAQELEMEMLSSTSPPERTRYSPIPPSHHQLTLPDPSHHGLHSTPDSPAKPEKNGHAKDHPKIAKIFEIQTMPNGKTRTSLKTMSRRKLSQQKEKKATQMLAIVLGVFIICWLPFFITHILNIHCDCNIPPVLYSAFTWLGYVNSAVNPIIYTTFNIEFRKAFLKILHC
Description for D(1A) dopamine receptor: Displacement of [3H]SCH23390 from human D1R expressed in HEK293T cell membranes
Description for D(1B) dopamine receptor: Displacement of [3H]SCH23390 from human D5R expressed in HEK293T cell membranes
Description for D(3) dopamine receptor: Displacement of [3H]spiperone from human D3R expressed in CHO cell membranes
Description for D(4) dopamine receptor: Displacement of [3H]spiperone from human D4R expressed in CHO cell membranes

Take `Oc1ccc(N2CCNCC2)c2c1OCCO2`: the Ki on D(2) dopamine receptor [1] is 6 µM; on D(1A) dopamine receptor, 6 µM; in experiment [2] it was above 20 µM; at D(1B) dopamine receptor, above 20 µM; in experiment [3], 3.6 µM; in experiment [4], 4.2 µM. The Ki at D(4) dopamine receptor was above 18 µM; at D(3) dopamine receptor it was 0.11 µM; on D(2) dopamine receptor [5], 6.9 µM.

As usually defined, the Ki is the equilibrium dissociation constant of an inhibitor or competing ligand from its target. High values mean a looser hold on the target, low ones a stronger hold on the target.
